Square brackets hold non-standard residues; d marks the D form. Peptide text beside a SMILES is read from it. dHica = CC(C)C[C@@H](O)C(=O)O; NMeV = CN[C@H](C(=O)O)C(C)C; NMeA = CN[C@@H](C)C(=O)O; βAla = NCCC(=O)O
Target: IN-GCN2 interaction (6xHis-IN / GST-GCN2) (UniProt P04585+Q9P2K8)
Assay: biochemical
Type: binding, HIV-1 IN; human GCN2
Conditions: for IN-GCN2 interaction (%): screen, single dose 100 µM, single replicate, residual AlphaLISA signal normalized to DMSO control; for AlphaLISA signal in dose-response: compared to DMSO

Sequence of IN-GCN2 interaction (6xHis-IN / GST-GCN2) (Q9P2K8 192-1024, other chains not shown): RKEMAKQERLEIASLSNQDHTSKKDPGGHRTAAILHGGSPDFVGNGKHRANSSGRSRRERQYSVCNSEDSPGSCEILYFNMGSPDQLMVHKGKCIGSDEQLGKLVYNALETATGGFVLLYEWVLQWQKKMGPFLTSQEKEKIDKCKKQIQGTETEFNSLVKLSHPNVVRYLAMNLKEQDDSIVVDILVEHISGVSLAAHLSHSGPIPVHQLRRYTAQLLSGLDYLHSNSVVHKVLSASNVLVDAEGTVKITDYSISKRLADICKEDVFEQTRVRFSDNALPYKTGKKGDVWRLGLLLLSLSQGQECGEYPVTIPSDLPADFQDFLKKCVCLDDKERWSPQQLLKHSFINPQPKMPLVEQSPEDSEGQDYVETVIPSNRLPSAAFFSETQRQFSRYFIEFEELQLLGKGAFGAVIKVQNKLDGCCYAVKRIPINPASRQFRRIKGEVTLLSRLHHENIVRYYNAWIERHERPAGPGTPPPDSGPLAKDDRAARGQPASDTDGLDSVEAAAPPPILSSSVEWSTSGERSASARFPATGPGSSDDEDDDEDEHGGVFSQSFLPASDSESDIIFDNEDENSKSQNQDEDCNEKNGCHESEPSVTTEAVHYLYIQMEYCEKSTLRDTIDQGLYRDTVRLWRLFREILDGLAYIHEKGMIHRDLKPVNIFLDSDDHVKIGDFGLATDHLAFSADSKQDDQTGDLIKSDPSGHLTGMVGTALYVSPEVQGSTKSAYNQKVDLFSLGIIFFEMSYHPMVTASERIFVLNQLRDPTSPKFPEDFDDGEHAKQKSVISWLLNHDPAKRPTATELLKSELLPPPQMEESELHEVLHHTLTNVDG

SMILES	IN-GCN2 interaction (%)	also measured
CC(O)C1/C=C/C=C/C(=O)OC2CC3OC4C5OC5(C)C(O)CC4(COC(=O)C(O)C(C)CCO1)C2(C)C31CO1 (centres unmarked) [NSC327993]	115.91	
COc1cc2c3c(c1O)-c1cc(O)ccc1CC3N(C)CC2 (centres unmarked) [NSC785186]	59.88	
CC(C)[C@]12CC(=O)[C@@H](C)[C@H]1C2 [NSC67392]	80.58	
CO[C@@H]1[C@H](O)CC[C@]2(CO2)[C@H]1[C@@]1(C)O[C@@H]1CC=C(C)C [NSC9665]	118.70	
CN1CCc2cc3c(cc2[C@H]1[C@@H]1OC(=O)c2c1ccc1c2OCO1)OCO3 [NSC32192]	122.62	
CC(=O)O[C@@]1(C)C[C@@H]([C@H](O)CC2CC(=O)NC(=O)C2)C(=O)[C@@H](C)C1 [NSC32743]	79.33	
CCCCCCCCCC[C@H](C(=O)O)[C@]1(C(=O)O)CCC(=O)O1 [NSC244387]	146.01	
CO[C@H]1[C@H](O)[C@@H](O)[C@H](n2c3c(Cl)cccc3c3c4c(c5c6cccc(Cl)c6[nH]c5c32)C(=O)NC4=O)O[C@@H]1CO [NSC359079]	55.24	
Nc1nc2c(c(=O)[nH]1)N(C=O)C(CNc1ccc(C(=O)N[C@@H](CCC(=O)O)C(=O)O)cc1)CN2 (some centres unmarked) [NSC3590]	94.67	
CC1=C2[C@H]3OC(=O)[C@@H](C)[C@@H]3CC[C@@]2(C)C=C/C1=N\O [NSC42038]	112.40	
COc1cc2c(cc1O)[C@@H](Cc1ccc(Oc3cc(C[C@H]4c5cc(O)c(OC)cc5CCN4C)ccc3O)cc1)N(C)CC2 [NSC785184]	46.86	
CC1=CC(=O)[C@@H]2C[C@H]1C2(C)C [NSC6832]	90.37	
C/C(=C\COc1ccc2ccc(=O)oc2c1)C1=CC(=O)C(C)(C)O1 [NSC142227]	94.46	
COc1cc([C@@H]2c3cc4c(cc3C[C@H]3COC(=O)[C@@H]32)OCO4)cc(OC)c1OC [NSC403148]	91.16	
N=C1C=C(N)C(=O)c2[nH]c(=O)ccc21 [NSC111041]	43.78	
COC1=C(N)C(=O)c2nc(-c3nc(C(=O)O)c(C)c(-c4ccc(OC)c(OC)c4O)c3N)ccc2C1=O [NSC45383]	84.72	
C[C@@H]1CC[C@H]2[C@@H](C)C(=O)O[C@@H]3O[C@@]4(C)CC[C@@H]1[C@]32OO4 [NSC369397]	101.56	
CC(=O)C1CCCC(=O)/C=C/C(=O)O1 (centres unmarked) [NSC180515]	108.07	
COC1=CC23CCCN2CCc2cc4c(cc2C3C1O)OCO4 (centres unmarked) [NSC128487]	118.57	
O=c1[nH]c(=O)c2[nH]cnc2[nH]1 [NSC14664]	105.35	
CC(C)=CC(=O)O[C@H]1[C@H]2[C@H](OC(=O)[C@H]2C)[C@H](O)[C@@H](C)[C@@H]2C=CC(=O)[C@]21C [NSC176503]	99.27	

SMILES	IN-GCN2 interaction (%)	also measured
CC1C(=O)OC2CCN3CC4OC4(COC(=O)C(C)(O)C1(C)O)C23 (centres unmarked) [NSC113087]	97.53	
C=C(NC(=O)C(=C)NC(=O)c1csc(C2=N[C@@H]3c4csc(n4)[C@H]4NC(=O)c5csc(n5)[C@H]([C@](C)(O)[C@@H](C)O)NC(=O)[C@H]5CSC(=N5)/C(=C/C)NC(=O)[C@H]([C@@H](C)O)NC(=O)c5csc(n5)[C@]3(CC2)NC(=O)[C@H](C)NC(=O)C(=C)NC(=O)C(=C)NC(=O)[C@H](C(C)C)N[C@@H]2C=Cc3c([C@H](C)O)cc(nc3[C@H]2O)C(=O)O[C@@H]4C)n1)C(N)=O [NSC285116]	79.00	
COc1ccc2c3c([nH]c2c1)[C@H](C=C(C)C)N1C(=O)[C@@H]2CCCN2C(=O)[C@@H]1C3 [NSC719655]	66.56	
COc1cc(O[C@@H]2O[C@H](CO)[C@@H](O)[C@H](O)[C@H]2O)c2c(c1)O[C@H](c1ccc(O)cc1)CC2=O [NSC407308]	92.73	
O=c1c(O)cccc2cc(O)c(O)c(O)c12 [NSC35676]	61.12	
CC1=CC(=O)C2=C(C)CCC3C(C)C(=O)OC3C12 (centres unmarked) [NSC156236]	75.72	
C=C1C(=O)O[C@@H]2C[C@@H](C)[C@@H]3C=CC(=O)[C@@]3(C)[C@@H](O)[C@H]12 [NSC85236]	117.15	
O=C(O)C1C2CC3OC(=O)C1C3C2 (centres unmarked) [NSC12444]	94.03	
CC(=O)O[C@H]1C[C@H](O[C@H]2[C@@H](O)C[C@H](O[C@H]3[C@@H](O)C[C@H](O[C@H]4CC[C@@]5(C)[C@H](CC[C@@H]6[C@@H]5CC[C@]5(C)[C@@H](C7=CC(=O)OC7)[C@@H](O)C[C@]65O)C4)O[C@@H]3C)O[C@@H]2C)O[C@H](C)[C@H]1O[C@@H]1O[C@H](CO)[C@@H](O)[C@H](O)[C@H]1O [NSC7535]	83.30	
O=c1[nH]cnc2ccccc12 [NSC5863]	93.27	
CC(C)=CCc1c2c(c3occ(-c4ccc(O)c(O)c4)c(=O)c3c1O)C=CC(C)(C)O2 [NSC5113]	36.50	
CC(C)C[C@H](N)C(=O)O [NSC46709]	84.16	
COc1ccc2c(c1OC)-c1cccc3c1[C@@H](C2)N(C)CC3 [NSC785153]	61.13	
C1CCC(NC2CCCCC2)CC1.COC1C(OC(=O)/C=C/C=C/C=C/C=C/C(=O)O)CCC2(CO2)C1C1(C)OC1CC=C(C)C (centres unmarked) [NSC58368]	95.05	
CC(=O)OC1C2(CC3N4C(=O)C5(CO)SSC4(CC31O)C(=O)N5C)OC(C)C(C)(C)C2=O (centres unmarked) [NSC294408]	104.55	
COc1cccc2c1[C@H](CO)N1[C@H](C#N)[C@@H]3C[C@H](C(=O)O)[C@@H]([C@@H]1C2)N3C [NSC607097]	110.01	
CC1(C)Oc2cc3oc(=O)ccc3c3c2C2C1CCC(C)(O3)C2O (centres unmarked) [NSC83433]	78.75	
COC(=O)C1C(O)C(C)C(O)OC1C(C)C(O)C(C)C=CC=C(C)C(=O)Nc1c(C)c(OC(C)=O)c2c(c1O)C(=O)C(C)=C1OCOC(C(C)=CC(C)=O)=C12 (centres unmarked) [NSC169627]	26.60	
O=c1ccc2nc3ccc(O)cc3oc-2c1 [NSC12097]	169.88	
COc1ccc(C(=O)O[C@H]2CC[C@@]3(C)[C@@H]4CC[C@H]5[C@]6(O)C[C@H](O)[C@@]7(O)[C@@H](CN8C[C@@H](C)CC[C@H]8[C@@]7(C)O)[C@]6(O)C[C@@]53O[C@]24O)cc1OC [NSC7524]	106.09	
CC[C@H](C)[C@@H]1NC(=O)[C@@H]2CCCN2C(=O)[C@@H](CC(C)C)OC(=O)CCNC(=O)[C@H](C)N(C)C(=O)[C@H](C(C)C)N(C)C1=O [NSC236580] (cyclo([dHica]PI[NMeV][NMeA][βAla]))	98.06	

SMILES	IN-GCN2 interaction (%)	also measured
O=C(O)C1(O)C[C@@H](O)C(O)[C@H](O)C1 (some centres unmarked) [NSC1115]		IN-GCN2 interaction (%) (listed as 1115): 83.40%
C[C@]12C(=O)C=CCC1=CC[C@@H]1[C@@H]2CC[C@]2(O)C(=O)O[C@@]3(C)[C@H]4C[C@]5(C)[C@@H](CO[C@@]16O[C@@]32[C@H]5C6=O)C(=O)O4 [NSC287088]	131.80	
CO[C@@]12[C@H](COC(N)=O)C3=C(C(=O)C(C)=C(N)C3=O)N1C[C@H]1[C@@H]2N1C (some centres unmarked) [NSC56410]	73.33	
CC[C@@]1(O)C(=O)OCc2c1cc1n(c2=O)Cc2cc3ccccc3nc2-1 [NSC100880]		IN-GCN2 interaction (%) (listed as 100880): 95.24%
COc1ccc2c(=O)oc3c(OC)cc(CCN(C)C)c4c(=O)oc1c2c34 [NSC76022]		AlphaLISA signal in dose-response (at 33 µM): 120%; AlphaLISA signal in dose-response (at 100 µM): 200%
COc1ccc2c(c1)[C@@]13CCN4CC5=CCO[C@H]6CC(=O)N2[C@H]1[C@H]6[C@H]5C[C@H]43 [NSC72862]	85.38	
COc1cc2c(cc1OC)C(OC)N(C)c1c-2ccc2cc3c(cc12)OCO3 (centres unmarked) [NSC146396]	90.77	
COc1c2occc2cc2ccc(=O)oc12 [NSC45923]	121.17	
CC(=O)O[C@@H]1[C@@H](O)[C@H](O[C@H]2[C@H](OC(=O)[C@H]3CC[C@H]4[C@@H](C3)O[C@@]3(C[C@H](OC(=O)/C=C/c5ccccc5)[C@H](C)CO3)[C@]43CO3)O[C@H](C)[C@@H](O)[C@@H]2OC(C)=O)O[C@H](C)[C@H]1O [NSC328426]	91.16	
CN1CCc2cc3c(c4c2[C@H]1Cc1ccccc1-4)OCO3 [NSC785164]	64.36	
N#Cc1cn([C@@H]2O[C@H](CO)[C@@H](O)[C@H]2O)c2ncnc(N)c12 [NSC63701]		IN-GCN2 interaction (%) (listed as 63701): 116.97%
CN1CCc2cc3c(cc2C(=O)Cc2ccc4c(c2C1)OCO4)OCO3.Cl [NSC11440]	160.70	
C[C@@H]1O[C@@H](O[C@@H]2C=C3CC[C@@H]4[C@H](CC[C@]5(C)[C@@H](c6ccc(=O)oc6)CC[C@]45O)[C@@]3(C)CC2)[C@H](O)[C@H](O)[C@H]1O [NSC7521]	97.97	
COc1c(OC)c2c3c(nccc3c1OC)C(=O)c1ccccc1-2 [NSC785149]	57.46	
COC(=O)NC1C(C)OC(OC2C/C=C(/C)C3C=CC4C(OC5CC(OC6CCC(OC7CC(O)C(OC8CCC(O)C(C)O8)C(C)O7)C(C)O6)C(OC(C)=O)C(C)O5)C(C)CC(C)C4C3(C)/C(O)=C3/C(=O)OC4(CC(C=O)=CC(O)C4/C=C\2C)C3=O)CC1(C)[N+](=O)[O-] (centres unmarked) [NSC333856]	110.41	
CC(CCC/C=C/CCCN(C)C(=N)N)CC(C)C1OC(=O)C(C)C(O)/C=C/C(C)C(O)C(C)C(O)C(C)C(O)CCCC(O)CC2(O)OC(CC(OC(=O)CC(=O)O)CC(O)CC(O)C(C)C(O)/C=C/C=C/C1C)CC(O)C2O (centres unmarked) [NSC107041]	57.24	
COc1c2c(cc(O)c1C(C)=O)OC(C)(C)C=C2 [NSC36294]	109.95	
C[N+]1([O-])[C@@H]2CC[C@H]1CC(OC(=O)C(CO)c1ccccc1)C2 (some centres unmarked) [NSC72861]	92.58	
N#Cc1cn([C@@H]2O[C@H](CO)[C@@H](O)[C@H]2O)c2ncnc(N)c12 [NSC99843]		IN-GCN2 interaction (%) (listed as 99843): 116.98%

Source: PMC12390684 (Viruses, 2025)
